Here are results for 12 compounds from publication PMC7216583 (Parasites & Vectors, 2020).

Counter-ions that a name gives are not always drawn.

In series [1] the target is δ-opioid receptor. Set-up: method as in library vendor description. Conditions: agonist; ref library vendor description; cited from earlier work.
Series [2] relates to Toxoplasma gondii RH-2F tachyzoites. Nature of the series: microbe, parasite or virus in culture. The settings on record: 72 h, read-out: Parasite inhibition (%) mean, preliminary screen, mean.
Series [3] has as its system CYP17. Set-up: method as in library vendor description. Conditions: ref library vendor description; cited from earlier work.
The test system of series [4] is FGFR1. Set-up: method as in library vendor description. The settings on record: ref library vendor description; cited from earlier work.
Series [5] relates to VEGFR2. Set-up: method as in library vendor description. Conditions: ref library vendor description; cited from earlier work.
Series [6] relates to Flk1. Set-up: method as in library vendor description. The settings on record: ref library vendor description; cited from earlier work.
Series [7] has as its system VEGFR1. Set-up: method as in library vendor description. The settings on record: ref library vendor description; cited from earlier work.
Series [8] concerns FKBP12. The arrangement: method as in library vendor description. Conditions: ref library vendor description; read-out: IC50 mTOR inhibitor of FKBP12; cited from earlier work.
Series [9] concerns G551D-CFTR. The arrangement: method as in library vendor description. The settings on record: potentiator; ref library vendor description; cited from earlier work.
The test system of series [10] is F508del-CFTR. Set-up: method as in library vendor description. The settings on record: potentiator; ref library vendor description; cited from earlier work.
Series [11] has as its system CDK4/cyclin D1. Set-up: method as in library vendor description. Conditions: ref library vendor description; cited from earlier work.
Series [12] relates to CDK6/cyclin D2. Set-up: method as in library vendor description. The settings on record: ref library vendor description; cited from earlier work.
Series [13] concerns the target DHFR. The settings on record: read-out: Ki DHFR; ref library vendor description; cited from earlier work.
The nature of series [14]: in vitro. The settings on record: human.
Series [15] deals with SIRT1. The arrangement: method as in library vendor description. Conditions: ref library vendor description; cited from earlier work.
In series [16] the target is Mcl-1. The arrangement: method as in library vendor description. The settings on record: recombinant; ref library vendor description; cited from earlier work.
In series [17] the target is Bcl-2. The arrangement: method as in library vendor description. Conditions: ref library vendor description; cited from earlier work.
Series [18] has as its target Bcl-xL. Set-up: method as in library vendor description. The settings on record: recombinant; ref library vendor description; cited from earlier work.
Series [19] relates to AXL. Set-up: method as in library vendor description. Conditions: ref library vendor description; cited from earlier work.
Series [20] has as its system Flt1. Set-up: method as in library vendor description. Conditions: ref library vendor description; cited from earlier work.
Series [21] concerns human foreskin fibroblasts (HFFs). Conditions: human, 72 h.
The subject of series [22] is Flt4. The arrangement: method as in library vendor description. Conditions: ref library vendor description; cited from earlier work.
Series [23] relates to c-Kit. The arrangement: method as in library vendor description. Conditions: ref library vendor description; cited from earlier work.
In series [24] the test system is Ret. Set-up: method as in library vendor description. Conditions: ref library vendor description; cited from earlier work.
For series [25], the system named is survivin. Set-up: method as in library vendor description. The settings on record: ref library vendor description; cited from earlier work.
The subject of series [26] is wild type p110α. Set-up: method as in library vendor description. Conditions: ref library vendor description; cited from earlier work.
In series [27] the test system is Toxoplasma gondii RH-2F tachyzoites. The settings on record: preliminary screen, mean.

Regarding `CCN(CC)C(=O)c1ccc(C2=CC3(CCNCC3)Oc3cccc(O)c32)cc1` [ADL5859 HCl], in series [1], the Ki (usually the dissociation constant of the complex between target and ligand, obtained from inhibition or displacement) was 0.8 nM. The inhibition of growth at 5 µM in series [2] stood at 1.1%.
`C[C@]12CC[C@H](O)CC1=CC[C@@H]1[C@H]2CC[C@]2(C)C(c3cccnc3)=CC[C@@H]12` [Abiraterone (CB-7598)]: in series [3], the half-maximal inhibitory concentration (IC50) (usually the concentration that gives 50% inhibition) was 2 nM. Further, the inhibition of growth at 5 µM in series [2] was found to be 11.2%.
For the compound `Cc1cc2c(F)c(Oc3ncnn4cc(OC[C@@H](C)OC(=O)[C@H](C)N)c(C)c34)ccc2[nH]1` [Brivanib alaninate (BMS-582664)], the IC50 in series [4] was 148 nM; in series [5], 25 nM; in [6] it was 89 nM; in [7], 380 nM. Besides, in series [2], the inhibition of growth at 5 µM was determined as 7.1%.
With `CO[C@H]1C[C@@H]2CC[C@@H](C)[C@@](O)(O2)C(=O)C(=O)N2CCCC[C@H]2C(=O)O[C@H]([C@@H](C)C[C@@H]2CC[C@@H](OCCO)[C@H](OC)C2)CC(=O)[C@H](C)/C=C(\C)[C@H](O)[C@@H](OC)C(=O)[C@H](C)C[C@H](C)/C=C/C=C/C=C/1C` [Everolimus (RAD001)], the inhibition of growth at 5 µM in [2] was 14.5%. In [8], the half-inhibitory concentration (IC50) was 1.6 to 2.4 nM.
In the case of `CC(C)(C)c1cc(C(C)(C)C)c(NC(=O)c2c[nH]c3ccccc3c2=O)cc1O` [Ivacaftor (VX-770)], the 50% effective concentration (EC50) (as a rule, the concentration giving half of the maximal effect) is 100 nM in series [9] and 25 nM in series [10]. In addition, the inhibition of growth at 5 µM in series [2] is 0.6%.
Take `CC(=O)c1c(C)c2cnc(Nc3ccc(N4CCNCC4)cn3)nc2n(C2CCCC2)c1=O` [PD 0332991 (Palbociclib) HCl]: the inhibition of growth at 5 µM in series [2] came to 0.1%. The results for the IC50 in series [11] and in [12] were […] and 16 nM, respectively.
Turning to `Nc1nc(=O)c2c(CCc3ccc(C(=O)N[C@H](CCC(=O)O)C(=O)O)cc3)c[nH]c2[nH]1` [Pemetrexed (Alimta)], the Ki in [13] was 7.2 nM. The viability – broadly, a per cent measure of how many cells are alive, often set against a control – in series [14] turned out to be 84.6%.
On to `Cl.O=C(Nc1ccccc1-c1cn2c(CN3CCNCC3)csc2n1)c1cnc2ccccc2n1` [SRT1720], for which, in [15], the “EC1.5 SIRT1 activation” value is “SRT1720 is a selective SIRT1 activator with EC1.5 of 0.16 μM”. Also, the inhibition of growth at 5 µM in [2] is 18.3%.
Turning to `CC(C)c1ccccc1Cc1cc(C(=O)Nc2ccc(S(=O)(=O)c3ccccc3C(C)(C)C)cc2)c(O)c(O)c1O` [TW-37], the inhibition constant Ki was 260 nM in series [16], 290 nM in series [17] and 1110 nM in [18]. Moreover, the inhibition of growth at 5 µM in [2] was 58.9%.
With `COc1cc2nccc(Oc3ccc(NC(=O)C4(C(=O)Nc5ccc(F)cc5)CC4)cc3)c2cc1OC` [XL-184 (Cabozantinib)], the concentration for half-maximal inhibition (IC50) in series [19] was […]; in series [20], 12 nM; in series [22] it was 6 nM; in series [23] it was […]; in [24], […]. Besides, the “Host viability (%) mean” value in [21] is listed as 50.8%. Besides, the inhibition of growth at 5 µM in [2] stood at 82.5%.
`COCCn1c2c([n+](Cc3cnccn3)c1C)C(=O)c1ccccc1C2=O` [YM155]: in series [25], the IC50 was 0.54 nM. Besides, the inhibition of growth at 5 µM in series [2] was 15.4%.
Turning to XL147, the half-inhibitory concentration (IC50) in series [26] is 40 nM. The “Parasite inhibition (%) mean” value in series [27] came to 44.4%.
